Data reported in US20020137929A1, “1 - (3-heterocyclylphenyl) isothiourea, -isourea, -guanidine and -amidine herbicidal agents” (Intellectual Property Department, BASF Aktiengesellschaft, priority 1998, published 2002).

Experiments:
AMBEL (Ragweed, Common) = test: Preemergence herbicidal evaluation; type: in vivo, Ambrosia artemisifolia; settings: rated 4-5 weeks after treatment
Description: (§1) Results of herbicide evaluation are expressed on a rating scale (0-9). The scale is based upon a visual observation of plant stand, vigor, malformation, size, chlorosis and overall plant appearance as compared with a control.
The preemergence herbicidal activity of the test compounds of the present invention is exemplified by the following tests in which the seeds of a variety of monocotyledonous and dicotyledonous plants are separately mixed with potting soil and planted on top of approximately one inch of soil in separate pint cups. After planting, the cups are sprayed with the selected aqueous acetone solution containing test compound in sufficient quantity to provide the equivalent of about 0.0156 to 0.500 kg per hectare of test compound per cup. The treated cups are then placed on greenhouse benches, watered and cared for in accordance with conventional greenhouse procedures. From four to five weeks after treatment, the tests are terminated and each cup is examined and rated according to the rating system provided in Example 37.
The compounds evaluated are reported by compound number given in Example 37.

CYPIR (Rice Flatsedge) = test: Preemergence weed control under flooded paddy conditions; type: in vivo, Cyperus iria; settings: rated 3-4 weeks after treatment
Experimental: as §1
Preemergence herbicidal activity under flooded paddy conditions is determined as follows: plant seeds or propagating organs are planted in the top 0.5 cm of silt loam soil in 32 oz. plastic containers with a diameter of 10.5 cm and no drainage holes. Water is added to these containers and maintained at 1.5 to 3 cm above the soil surface for the duration of the experiment. The test compounds are applied as aqueous/acetone mixtures 50/50 v/v pipetted directly into the flood water to give the equivalent of about 0.0313 to 0.500 kg/ha of active ingredient. The treated containers are placed on greenhouse benches and cared for in accordance with conventional greenhouse procedures. Three to four weeks after treatment, the test is terminated and each container is examined and herbicidal effect rated according to the rating system provided in Example 37. The compounds evaluated are reported by compound number given in Example 37.
Plant species employed in this example are reported by header abbreviation, common name and scientific name.

SMILES | Preemergence herbicidal rating AMBEL (AMBEL (Ragweed, Common); rate 0.0156 kg/ha) | Preemergence herbicidal rating AMBEL (AMBEL (Ragweed, Common); rate 0.0313 kg/ha) | Preemergence herbicidal rating AMBEL (AMBEL (Ragweed, Common); rate 0.0625 kg/ha) | Preemergence herbicidal rating AMBEL (AMBEL (Ragweed, Common); rate 0.1250 kg/ha) | Preemergence herbicidal rating AMBEL (AMBEL (Ragweed, Common); rate 0.2500 kg/ha) | CYPIR herbicidal effect rating (CYPIR (Rice Flatsedge); 0.0313 kg/ha) | CYPIR herbicidal effect rating (CYPIR (Rice Flatsedge); 0.0625 kg/ha) | CYPIR herbicidal effect rating (CYPIR (Rice Flatsedge); 0.1250 kg/ha) | CYPIR herbicidal effect rating (CYPIR (Rice Flatsedge); 0.2500 kg/ha) | Herbicidal rating CYPIR (CYPIR (Rice Flatsedge); 0.0313 kg/ha) | Herbicidal rating CYPIR (CYPIR (Rice Flatsedge); 0.0625 kg/ha) | Herbicidal rating CYPIR (CYPIR (Rice Flatsedge); 0.1250 kg/ha) | Herbicidal rating CYPIR (CYPIR (Rice Flatsedge); 0.2500 kg/ha) | Preemergence herbicidal rating AMBEL (AMBEL (Ragweed, Common); rate 0.5000 kg/ha) | herbicidal effect rating, CYPIR (CYPIR (Rice Flatsedge); 0.0313 kg/ha) | herbicidal effect rating, CYPIR (CYPIR (Rice Flatsedge); 0.0625 kg/ha) | herbicidal effect rating, CYPIR (CYPIR (Rice Flatsedge); 0.1250 kg/ha) | herbicidal effect rating, CYPIR (CYPIR (Rice Flatsedge); 0.2500 kg/ha)
COC(=O)C(Cc1ccc(Cl)cc1)N1C(=O)CSC1=Nc1cc(-n2c(=O)cc(C(F)(F)F)n(C)c2=O)c(F)cc1Cl (racemic) [Compound 77, Methyl α-(p-chlorobenzyl)-2-{{2-chloro-5-[3,6-dihydro-3-methyl-2,6-dioxo-4-(trifluoromethyl)-1(2H)-pyrimidinyl]-4-fluorophenyl}imino}-4-oxo-3-thiazolidineacetate, DL-] | 0.0 | 2.0 | 1.0 | 2.0 | 7.0 | 0.0 | 0.0 | 0.0 | 0.0 |  |  |  |  |  |  |  |  | 
CCOC(=O)CN1C(=O)C(Cc2ccccc2OC)SC1=Nc1cc(-n2c(=O)cc(C(F)(F)F)n(C)c2=O)c(F)cc1Cl (stereo not shown) [Compound 37, Ethyl 2-{{2-chloro-5-[3,6-dihydro-3-methyl-2,6-dioxo-4-(trifluoromethyl)-1(2H)-pyrimidinyl]-4-fluorophenyl}imino}-5-(o-methoxybenzyl)-4-oxo-3-thiazolidineacetate] |  |  |  | 0.0 | 0.0 |  |  |  |  | 0.0 | 0.0 | 0.0 | 0.0 |  |  |  |  | 
C[C@H](C(=O)O)N1C(=O)CSC1=Nc1cc(-n2c(=O)cc(C(F)(F)F)n(C)c2=O)c(F)cc1Cl [Compound 70, 2-{{2-Chloro-5-[3,6-dihydro-3-methyl-2,6-dioxo-4-(trifluoromethyl)-1(2H)-pyrimidinyl]-4-fluoro-phenyl}imino}-α-methyl-4-oxo-3-thiazolidineacetic acid, D-] | 0.0 | 0.0 | 0.0 | 3.0 | 9.0 | 0.0 | 2.0 | 2.0 | 2.0 |  |  |  |  |  |  |  |  | 
COC(=O)[C@@H](Cc1ccccc1)N1C(=O)CSC1=Nc1cc(-n2c(=O)cc(C(F)(F)F)n(C)c2=O)c(F)cc1Cl [Compound 74, Methyl α-benzyl-2-{{2-chloro-5-[3,6-dihydro-3-methyl-2,6-dioxo-4-(trifluoromethyl)-1(2H)-pyrimidinyl]-4-fluorophenyl}imino}-4-oxo-3-thiazolidineacetate, D-] | 0.0 | 1.0 | 3.0 | 9.0 | 9.0 | 0.0 | 0.0 | 0.0 | 0.0 |  |  |  |  |  |  |  |  | 
C[C@@H](C(=O)OC(C)(C)C)N1C(=O)CSC1=Nc1cc(-n2c(=O)cc(C(F)(F)F)n(C)c2=O)c(F)cc1Cl [Compound 75, tert-Butyl 2-{{2-chloro-5-[3,6-dihydro-3-methyl-2,6-dioxo-4-(trifluoromethyl)-1(2H)-pyrimidinyl]-4-fluorophenyl}imino}-α-methyl-4-oxo-3-thiazolidineacetate, L-] | 0.0 | 0.0 | 1.0 | 6.0 | 7.0 | 0.0 | 0.0 | 6.0 | 6.0 |  |  |  |  |  |  |  |  | 
CCOC(=O)[C@H](Cc1ccccc1)N1C(=O)CSC1=Nc1cc(-n2c(=O)cc(C(F)(F)F)n(C)c2=O)c(F)cc1Cl [Compound 80, Ethyl α-benzyl-2-{{2-chloro-5-[3,6-dihydro-3-methyl-2,6-dioxo-4-(trifluoromethyl)-1(2H)-pyrimidinyl]-4-fluorophenyl}imino}-4-oxo-3-thiazolidineacetate, L-] |  | 0.0 | 2.0 | 9.0 | 7.0 | 5.0 | 7.0 | 7.0 | 7.0 |  |  |  |  |  |  |  |  | 
COC(=O)COC(=O)CN1C(=O)CSC1=Nc1cc(-n2c(=O)cc(C(F)(F)F)n(C)c2=O)c(F)cc1Cl [Compound 108, 2-{{2-Chloro-5-[3,6-dihydro-3-methyl-2,6-dioxo-4-(trifluoromethyl)-1(2H)-pyrimidinyl]-4-fluorophenyl}imino}-4-oxo-3-thiazolidineacetic acid, ester with methyl glycolate] | 0.0 | 0.0 | 0.0 | 0.0 | 1.0 | 4.0 | 6.0 | 7.0 | 7.0 |  |  |  |  |  |  |  |  | 
CC(C)OC(=O)CN1C(=O)CSC1=Nc1cc(-n2c(=O)cc(C(F)(F)F)n(C)c2=O)c(F)cc1Cl [Compound 110] | 1.0 | 2.5 | 3.5 | 4.5 | 6.5 | 3.0 | 4.0 | 7.0 | 8.0 |  |  |  |  | 9.0 |  |  |  | 
Cn1c(C(F)(F)F)cc(=O)n(-c2cc(N=C3SCC(=O)N3CC(=O)OC3CCCC3)c(Cl)cc2F)c1=O [Compound 120, Cyclopentyl 2-{{2-chloro-5-[3,6-dihydro-3-methyl-2,6-dioxo-4-(trifluoromethyl)-1(2H)-pyrimidinyl]-4-fluorophenyl}imino}-4-oxo-3-thiazolidineacetate] | 0.0 | 0.0 | 3.0 | 4.0 | 4.0 |  |  |  |  |  |  |  |  |  | 2.0 | 2.5 | 3.5 | 9.0
CC(C)COC(=O)CN1C(=O)CSC1=Nc1cc(-n2c(=O)cc(C(F)(F)F)n(C)c2=O)c(F)cc1Cl [Compound 121, Isobutyl 2-{{2-chloro-5-[3,6-dihydro-3-methyl-2,6-dioxo-4-(trifluoromethyl)-1(2H)-pyrimidinyl]-4-fluorophenyl}imino}-4-oxo-3-thiazolidineacetate] | 0.0 | 2.0 | 3.0 | 4.0 | 8.0 |  |  |  |  |  |  |  |  |  | 4.0 | 4.0 | 8.0 | 8.0
Cn1c(C(F)(F)F)cc(=O)n(-c2cc(N=C3SCC(=O)N3CC(=O)OCC3CCCCC3)c(Cl)cc2F)c1=O [Compound 123, Cyclohexylmethyl 2-{{2-chloro-5-[3,6-dihydro-3-methyl-2,6-dioxo-4-(trifluoromethyl)-1(2H)-pyrimidinyl]-4-fluorophenyl}imino}-4-oxo-3-thiazolidineacetate] | 2.0 | 1.0 | 3.0 | 4.0 | 9.0 |  |  |  |  |  |  |  |  | 9.0 | 6.0 | 5.0 | 9.0 | 9.0
CCOC(=O)CN1C(=O)C(C(=O)OC)SC1=Nc1cc(-n2c(=O)cc(C(F)(F)F)n(C)c2=O)c(F)cc1Cl (stereo not shown) [Compound 128, 5-Carboxy-2-{{2-chloro-5-[3,6-dihydro-3-methyl-2,6-dioxo-4-(trifluoromethyl)-1(2H)-pyrimidinyl]-4-fluorophenyl}imino}-4-oxo-3-thiazolidineacetic acid, 3-ethyl methyl ester] | 0.0 | 0.0 | 0.0 | 2.0 | 3.0 |  |  |  |  |  |  |  |  |  | 0.0 | 4.0 | 4.0 | 4.0
